Measured values from patent US20250145665A1, “MACROCYCLIC PEPTIDES USEFUL AS MODULATORS OF TNF ALPHA” (Bristol-Myers Squibb Company, priority 2023, published 2025).
Starred links: 1 amine or outer side, 2 acyl side, 3 side chain; linkers in the order of their positions; H or OH if unused. Positions of bridges follow the written chain, without caps; N, C: chain ends. Non-standard residues stand in square brackets, D forms with d. Residues, ends and D or L forms follow the SMILES beside them. ξ: configuration not given here. *: point of attachment. Bip(4'-NHCO-C6H4-3-CH2COOH) = N[C@@H](Cc1ccc(-c2ccc(NC(=O)c3cccc(CC(=O)O)c3)cc2)cc1)C(=O)O; Bip(4'-(3-HOOC-benzamido)) = N[C@@H](Cc1ccc(-c2ccc(NC(=O)c3cccc(C(=O)O)c3)cc2)cc1)C(=O)O; X34 = Cc1cc(C(=O)O)cc(C(=O)Nc2ccc(-c3ccc(C[C@H](N[*:1])C(=O)[*:2])cc3)cc2)c1; X5 = Cn1nc(C(=O)Nc2ccc(-c3ccc(C[C@H](N[*:1])C(=O)[*:2])cc3)cc2)c2ccccc21; dArg(Nω-CH2C6H4-3-CH2Gua) = N=C(N)NCc1cccc(CNC(=N)NCCC[C@@H](N)C(=O)O)c1; Bip(4'-NH) = O=C([C@H](Cc1ccc(-c2ccc(N[*:3])cc2)cc1)N[*:1])[*:2]; Bip(4'-CONHMe) = CNC(=O)c1ccc(-c2ccc(C[C@H](N)C(=O)O)cc2)cc1; Indazole3carbonyl(1-CH2COOH) = O=C(O)Cn1nc(C(=O)*)c2ccccc21; Bip(4'-COOH) = N[C@@H](Cc1ccc(-c2ccc(C(=O)O)cc2)cc1)C(=O)O; Bip(4'-NHAc) = CC(=O)Nc1ccc(-c2ccc(C[C@H](N)C(=O)O)cc2)cc1; X68 = N=C(NCCC[C@@H](N[*:1])C(=O)[*:2])NCc1ccc(O)c(O)c1; X8 = N=C(NCCC[C@@H](N[*:1])C(=O)[*:2])NCCc1ccc(CN)cc1; Ala(imidazol-2-yl) = N[C@@H](Cc1ncc[nH]1)C(=O)O; Ala(morpholin-4-yl) = N[C@@H](CN1CCOCC1)C(=O)O; Benzoyl(3-OCH2COOH) = O=C(O)COc1cccc(C(=O)*)c1; Phe(3-CONH2) = NC(=O)c1cccc(C[C@H](N)C(=O)O)c1; Bip = N[C@@H](Cc1ccc(-c2ccccc2)cc1)C(=O)O; Ala(2-furyl) = N[C@@H](Cc1ccco1)C(=O)O; Hyp = O=C(O)[C@@H]1C[C@@H](O)CN1; 2Pal = N[C@@H](Cc1ccccn1)C(=O)O; Tic = O=C(O)[C@@H]1Cc2ccccc2CN1; Cha = N[C@@H](CC1CCCCC1)C(=O)O; Tle = CC(C)(C)[C@H](N)C(=O)O; Aze = O=C(O)[C@@H]1CCN1; ξAze = O=C(O)C1CCN1; Sar = CNCC(=O)O

target: TNFα (Homo sapiens, UniProt P01375); assay: TNF-Induced HEK-Blue Assay; format: cell-based; settings: not given
Sequence (P01375 77-233 limits assumed): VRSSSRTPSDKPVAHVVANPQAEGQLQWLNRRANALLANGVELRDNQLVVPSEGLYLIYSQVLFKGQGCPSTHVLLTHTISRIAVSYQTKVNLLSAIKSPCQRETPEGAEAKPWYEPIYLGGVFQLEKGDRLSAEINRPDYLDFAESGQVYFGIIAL

| Structure (SMILES) | IC50 [nM] |
| --- | --- |
| CC(C)C[C@@H]1NC(=O)[C@H](CCCNC(=N)N)NC(=O)[C@H](C(C)C)NC(=O)[C@@H]2CCCN2C(=O)[C@H](C(C)C)NC(=O)[C@@H](CCCNC(=N)NCc2ccc(O)c(O)c2)NC(=O)[C@H](CC(=O)O)NC(=O)[C@@H]2CCCN2C(=O)CN(C)C(=O)[C@H](Cc2ccc(-c3ccc(NC(=O)c4nn(CC(=O)O)c5ccccc45)cc3)cc2)NC(=O)[C@H](Cc2ccc(-c3ccccc3)cc2)NC(=O)[C@H](CN2CCOCC2)NC(=O)CSC[C@@H](C(=O)NCC(N)=O)NC1=O [Example 635] ({CH2CO}-[Ala(morpholin-4-yl)][Bip][Bip(4'-NH)](Indazole3carbonyl(1-CH2COOH))[Sar]PD[X68]VPVRLCG-NH2; thioether N-13) | < 50 |
| CNC(=O)c1ccc(-c2ccc(C[C@@H]3NC(=O)[C@H](CN4CCOCC4)NC(=O)CSC[C@@H](C(=O)NCC(N)=O)NC(=O)[C@H](CC(C)C)NC(=O)[C@H](CCCNC(=N)N)NC(=O)[C@H](C(C)C)NC(=O)[C@@H]4CCCN4C(=O)[C@H](C(C)C)NC(=O)[C@@H](CCCNC(=N)NCCc4ccc(CN)cc4)NC(=O)[C@H](CC(=O)O)NC(=O)[C@@H]4CCCN4C(=O)CN(C)C(=O)[C@H](Cc4ccc(-c5ccc(NC(=O)c6nn(CC(=O)O)c7ccccc67)cc5)cc4)NC3=O)cc2)cc1 [Example 431] ({CH2CO}-[Ala(morpholin-4-yl)][Bip(4'-CONHMe)][Bip(4'-NH)](Indazole3carbonyl(1-CH2COOH))[Sar]PD[X8]VPVRLCG-NH2; thioether N-13) | 50 to 200 |

same assay, conditions: HEK-Blue-CD40L cells, NF-kB-driven secreted alkaline phosphatase reporter; TNFα 0.5 ng/ml; 18 h; read-out: TNF induced HEK-Blue assay IC50 value

| Structure (SMILES) | IC50 [nM] |
| --- | --- |
| CC(=O)Nc1ccc(-c2ccc(C[C@@H]3NC(=O)[C@H](Cc4ccc(-c5ccccc5)cc4)NC(=O)[C@H](CN4CCOCC4)NC(=O)CSC[C@@H](C(=O)NCC(N)=O)NC(=O)[C@H](CC(C)C)NC(=O)[C@H](Cc4ccc(O)cc4)NC(=O)[C@H](C(C)C)NC(=O)[C@@H]4CCN4C(=O)[C@H](C(C)C)NC(=O)[C@@H](CCCNC(=N)N)NC(=O)[C@H](CC(=O)O)NC(=O)[C@H](Cc4ccccc4)NC(=O)CN(C)C3=O)cc2)cc1 [Example 221] ({CH2CO}-[Ala(morpholin-4-yl)][Bip][Bip(4'-NHAc)][Sar]FD[dR]V[Aze]VYLCG-NH2; thioether N-13) | < 50 |
| CC(C)C[C@@H]1NC(=O)[C@H](CCCNC(=N)N)NC(=O)[C@H](C(C)C)NC(=O)[C@@H]2CCCN2C(=O)[C@H](C(C)C)NC(=O)[C@@H](CCCNC(=N)N)NC(=O)[C@H](CC(=O)O)NC(=O)[C@@H]2CCCN2C(=O)CN(C)C(=O)[C@H](Cc2ccc(-c3ccc(NC(=O)c4nn(C)c5ccccc45)cc3)cc2)NC(=O)[C@H](Cc2ccc(-c3ccccc3)cc2)NC(=O)[C@H](CN2CCOCC2)NC(=O)CSC[C@@H](C(=O)NCC(N)=O)NC1=O [Example 338] ({CH2CO}-[Ala(morpholin-4-yl)][Bip][X5][Sar]PD[dR]VPVRLCG-NH2; thioether N-13) | < 50 |
| CC[C@H](C)[C@@H]1NC(=O)[C@@H]2CCCN2C(=O)[C@H]([C@@H](C)CC)NC(=O)[C@@H](CCCNC(=N)N)NC(=O)[C@H](CC(=O)O)NC(=O)[C@@H]2CCCN2C(=O)CN(C)C(=O)[C@H](Cc2ccc(-c3ccc(NC(C)=O)cc3)cc2)NC(=O)[C@H](Cc2ccc(-c3ccc(C(=O)O)cc3)cc2)NC(=O)[C@H](C(C)(C)C)NC(=O)CSC[C@@H](C(=O)NCC(N)=O)NC(=O)[C@H](CC(C)C)NC(=O)[C@H](Cc2ccc(O)cc2)NC1=O [Example 300] ({CH2CO}-[Tle][Bip(4'-COOH)][Bip(4'-NHAc)][Sar]PD[dR]IPIYLCG-NH2; thioether N-13) | 50 to 200 |
| CC[C@H](C)[C@@H]1NC(=O)[C@@H](CCCNC(=N)N)NC(=O)[C@H](CC(=O)O)NC(=O)[C@H](Cc2cnc[nH]2)NC(=O)CN(C)C(=O)[C@H](Cc2ccc(-c3ccc(NC(=O)c4cc(C)cc(C(=O)O)c4)cc3)cc2)NC(=O)[C@H](Cc2ccc(-c3ccccc3)cc2)NC(=O)[C@H](CC2CCCCC2)NC(=O)CSC[C@@H](C(=O)NCC(N)=O)NC(=O)[C@H](CC(C)C)NC(=O)[C@H](Cc2cnc[nH]2)NC(=O)[C@H](C(C)C)NC(=O)[C@@H]2CCCN2C1=O [Example 443] ({CH2CO}-[Cha][Bip][X34][Sar]HD[dR]IPVHLCG-NH2; thioether N-13) | < 50 |
| CC[C@H](C)[C@@H]1NC(=O)[C@@H](CCCNC(=N)N)NC(=O)[C@H](CC(=O)O)NC(=O)[C@H](Cc2cnc[nH]2)NC(=O)CN(C)C(=O)[C@H](Cc2ccc(-c3ccc(NC(C)=O)cc3)cc2)NC(=O)[C@H](Cc2ccc(-c3ccc(C(=O)O)cc3)cc2)NC(=O)[C@H](CC2CCCCC2)NC(=O)CSC[C@@H](C(=O)NCC(N)=O)NC(=O)[C@H](CC(C)C)NC(=O)[C@H](Cc2cnc[nH]2)NC(=O)[C@H](C(C)C)NC(=O)[C@@H]2C[C@@H](O)CN2C1=O [Example 277] ({CH2CO}-[Cha][Bip(4'-COOH)][Bip(4'-NHAc)][Sar]HD[dR]I[Hyp]VHLCG-NH2; thioether N-13) | < 50 |
| CC[C@H](C)[C@@H]1NC(=O)[C@@H](CCCNC(=N)N)NC(=O)[C@H](CC(=O)O)NC(=O)[C@H](Cc2cnc[nH]2)NC(=O)CN(C)C(=O)[C@H](Cc2ccc(-c3ccc(NC(C)=O)cc3)cc2)NC(=O)[C@H](Cc2ccc(-c3ccc(C(=O)O)cc3)cc2)NC(=O)[C@H](CC2CCCCC2)NC(=O)CSC[C@@H](C(=O)NCC(N)=O)NC(=O)[C@H](CC(C)C)NC(=O)[C@H](Cc2cnc[nH]2)NC(=O)[C@H](C(C)C)NC(=O)[C@@H]2Cc3ccccc3CN2C1=O [Example 274] ({CH2CO}-[Cha][Bip(4'-COOH)][Bip(4'-NHAc)][Sar]HD[dR]I[Tic]VHLCG-NH2; thioether N-13) | < 50 |
| CC[C@H](C)[C@@H]1NC(=O)[C@@H](CCCNC(=N)N)NC(=O)[C@H](CC(=O)O)NC(=O)[C@H](Cc2cnc[nH]2)NC(=O)CN(C)C(=O)[C@H](Cc2ccc(-c3ccc(NC(=O)c4cccc(OCC(=O)O)c4)cc3)cc2)NC(=O)[C@H](Cc2ccc(-c3ccccc3)cc2)NC(=O)[C@H](CN2CCOCC2)NC(=O)CSC[C@@H](C(=O)NCC(N)=O)NC(=O)[C@H](CC(C)C)NC(=O)[C@H](Cc2cnc[nH]2)NC(=O)[C@H](C(C)C)NC(=O)[C@@H]2CCCN2C1=O [Example 441] ({CH2CO}-[Ala(morpholin-4-yl)][Bip][Bip(4'-NH)](Benzoyl(3-OCH2COOH))[Sar]HD[dR]IPVHLCG-NH2; thioether N-13) | < 50 |
| CC(=O)Nc1ccc(-c2ccc(C[C@@H]3NC(=O)[C@H](Cc4ccc(-c5ccccc5)cc4)NC(=O)[C@H](CC4CCCCC4)NC(=O)CSC[C@@H](C(=O)NCC(N)=O)NC(=O)[C@H](CC(C)C)NC(=O)[C@H](Cc4ncc[nH]4)NC(=O)[C@H](C(C)C)NC(=O)C4CCN4C(=O)[C@H](C(C)C)NC(=O)[C@@H](CCCNC(=N)N)NC(=O)[C@H](CC(=O)O)NC(=O)[C@@H]4CCCN4C(=O)CN(C)C3=O)cc2)cc1 (some centres unmarked) [Example 466] ({CH2CO}-[Cha][Bip][Bip(4'-NHAc)][Sar]PD[dR]V[ξAze]V[Ala(imidazol-2-yl)]LCG-NH2; thioether N-13) | < 50 |
| CC[C@H](C)[C@@H]1NC(=O)[C@@H](CCCNC(=N)N)NC(=O)[C@H](CC(=O)O)NC(=O)[C@H](Cc2cnc[nH]2)NC(=O)CN(C)C(=O)[C@H](Cc2ccc(-c3ccc(NC(=O)c4cccc(C(=O)O)c4)cc3)cc2)NC(=O)[C@H](Cc2ccc(-c3ccc(C(=O)O)cc3)cc2)NC(=O)[C@H](CC2CCCCC2)NC(=O)CSC[C@@H](C(=O)NCC(N)=O)NC(=O)[C@H](CC(C)C)NC(=O)[C@H](Cc2cnc[nH]2)NC(=O)[C@H](C(C)C)NC(=O)[C@@H]2CCCN2C1=O [Example 530] ({CH2CO}-[Cha][Bip(4'-COOH)][Bip(4'-(3-HOOC-benzamido))][Sar]HD[dR]IPVHLCG-NH2; thioether N-13) | < 50 |
| CC(C)C[C@@H]1NC(=O)[C@H](Cc2ncc[nH]2)NC(=O)[C@H](C(C)C)NC(=O)[C@@H]2CCCN2C(=O)[C@H](C(C)C)NC(=O)[C@@H](CCCNC(=N)NCc2cccc(CNC(=N)N)c2)NC(=O)[C@H](CC(=O)O)NC(=O)[C@H](Cc2ccccn2)NC(=O)CN(C)C(=O)[C@H](Cc2ccc(-c3ccc(NC(=O)c4cccc(CC(=O)O)c4)cc3)cc2)NC(=O)[C@H](Cc2ccc(-c3ccc(C(=O)O)cc3)cc2)NC(=O)[C@H](CC2CCCCC2)NC(=O)CSC[C@@H](C(=O)NCC(N)=O)NC1=O [Example 558] ({CH2CO}-[Cha][Bip(4'-COOH)][Bip(4'-NHCO-C6H4-3-CH2COOH)][Sar][2Pal]D[dArg(Nω-CH2C6H4-3-CH2Gua)]VPV[Ala(imidazol-2-yl)]LCG-NH2; thioether N-13) | < 50 |
| CC(C)C[C@@H]1NC(=O)[C@H](Cc2cccc(C(N)=O)c2)NC(=O)[C@H](C(C)C)NC(=O)[C@@H]2CCCN2C(=O)[C@H](C(C)C)NC(=O)[C@@H](CCCNC(=N)N)NC(=O)[C@H](CC(=O)O)NC(=O)[C@H](Cc2cnc[nH]2)NC(=O)CN(C)C(=O)[C@H](Cc2ccc(-c3ccc(NC(=O)c4cccc(OCC(=O)O)c4)cc3)cc2)NC(=O)[C@H](Cc2ccc(-c3ccc(C(=O)O)cc3)cc2)NC(=O)[C@H](CC2CCCCC2)NC(=O)CSC[C@@H](C(=O)NCC(N)=O)NC1=O [Example 587] ({CH2CO}-[Cha][Bip(4'-COOH)][Bip(4'-NH)](Benzoyl(3-OCH2COOH))[Sar]HD[dR]VPV[Phe(3-CONH2)]LCG-NH2; thioether N-13) | < 50 |
| CC(=O)Nc1ccc(-c2ccc(C[C@@H]3NC(=O)[C@H](Cc4ccc(-c5ccc(C(=O)O)cc5)cc4)NC(=O)[C@H](CC4CCCCC4)NC(=O)CSC[C@@H](C(=O)NCC(N)=O)NC(=O)[C@H](CC(C)C)NC(=O)[C@H](Cc4ccco4)NC(=O)[C@H](C(C)C)NC(=O)[C@@H]4CCCN4C(=O)[C@H](C(C)C)NC(=O)[C@@H](CCCNC(=N)N)NC(=O)[C@H](CC(=O)O)NC(=O)[C@@H]4CCCN4C(=O)CN(C)C3=O)cc2)cc1 [Example 246] ({CH2CO}-[Cha][Bip(4'-COOH)][Bip(4'-NHAc)][Sar]PD[dR]VPV[Ala(2-furyl)]LCG-NH2; thioether N-13) | 50 to 200 |
